From patent publication US20090143285A1, “TARGET PROTEIN AND TARGET GENE FOR DRUG DISCOVERY AND SCREENING METHOD” (REVERSE PROTEOMICS RESEARCH INSTITUTE CO., LTD., priority 2005, published 2009)
Changes are numbered by the printed parent chain. Entries after “also recorded” stand apart in the source; their conditions may differ.

Legend:
[1] = tested on: FLJXXXXX-derived proteins; test: SEC/MS spin column interaction analysis of FLJXXXXX-derived proteins and various compounds (Tables 30-1 to 30-4); assay type: binding, human; settings: SEC spin column filtrate, spectral intensity increased with doses of compound and protein
[2] = target: T1, FLJ38897-derived protein (Homo sapiens, UniProt P57764); test: SEC/MS interaction analysis, FLJ38897-derived protein (GSDMDC1); assay type: binding; settings: spin column method; mixture with protein vs buffer solution alone; data not shown
T1 construct: His-tag (N); made in house; host or cells: Escherichia coli BL21star(DE3)pLysS
T1 sequence (P57764 265-484): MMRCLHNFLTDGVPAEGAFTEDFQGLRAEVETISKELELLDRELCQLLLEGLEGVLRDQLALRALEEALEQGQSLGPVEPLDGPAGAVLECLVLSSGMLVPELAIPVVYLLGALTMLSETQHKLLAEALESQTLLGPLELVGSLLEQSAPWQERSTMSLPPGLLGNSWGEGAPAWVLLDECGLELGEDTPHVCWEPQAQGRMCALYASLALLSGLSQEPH
Source text: (§1) To analyze the interactions between commonly used drugs and proteins expressed from human full-length cDNA clones while keeping both the proteins and the compounds in non-modified, non-immobilized state, size exclusion chromatography (SEC) and mass analysis were used in combination. The specific procedures are shown below.
(§2) The compound-protein mixture prepared in step 1 was subjected to chromatography using an SEC column, the compound and the protein were separated by SEC, and the compound that interacted with the bound compound or protein contained in the protein fraction was analyzed using a mass analyzer.
(§3) Protein concentrations were measured using BCA Protein Assay (PIERCE), in consideration of the purity calculated by SDS-PAGE.
Mass analysis was performed using LCQ DECA XP (Thermoelectron) or Q-TOF micro (Micromass), equipped with an ESI probe. The LC pump used was Agilent 1100 (Yokogawa Analytical Systems), and the autosampler used was HTC-PAL (CTC Analytics) equipped with a cooling stacker. The SEC column used was a micro-LC column or a 384-well spin column. […]
In the 384-well spin column method, Unifilter 100 (Whatman), packed with 10 μL (dry volume) of Bio-Gel P6 (BIO-RAD) and swollen with milliQ water, was used as the SEC column. […] The SEC spin column was mounted on an acetonitrile-aliquoted 384-well U-bottom plate and centrifuged; the SEC spin column filtrate, which is a protein fraction, was recovered in 50% acetonitrile. The protein precipitate produced by the acetonitrile was removed via centrifugation and filtration for deproteinization; the resulting filtrate was concentrated by centrifugal concentration and re-dissolved in 10 μL of 50% methanol to obtain a mass analysis sample. The mobile phase supplied to the mass analyzer was 0.1% formic acid/50% methanol solution in the positive ion mode, and 0.1% ammonia/50% methanol solution in the negative ion mode; these mobile phases were used at a flow rate of 40 μL/min. 2-μL of mass analysis samples were injected using an autosampler at 2-minute intervals; the mass spectral intensity of the compound was measured to retrieve the spectral intensity of the pharmaceutical compound contained in the SEC spin column filtrate (protein fraction eluted from SEC).

[3] = target: T2, FLJ11211-derived protein (Homo sapiens, UniProt Q9Y222, I712M); test: SEC/MS interaction analysis, FLJ11211-derived protein (DMTF1; DMP1); assay type: binding; settings: spin column method; mixture with protein vs buffer solution alone; data not shown
T2 construct: corresponds to a partial peptide of human DMP1 on the C-terminal side thereof (303 amino acid residues); His-tag (N); made in house; host or cells: Escherichia coli BL21star(DE3)pLysS
T2 sequence (Q9Y222 458-760 I712M): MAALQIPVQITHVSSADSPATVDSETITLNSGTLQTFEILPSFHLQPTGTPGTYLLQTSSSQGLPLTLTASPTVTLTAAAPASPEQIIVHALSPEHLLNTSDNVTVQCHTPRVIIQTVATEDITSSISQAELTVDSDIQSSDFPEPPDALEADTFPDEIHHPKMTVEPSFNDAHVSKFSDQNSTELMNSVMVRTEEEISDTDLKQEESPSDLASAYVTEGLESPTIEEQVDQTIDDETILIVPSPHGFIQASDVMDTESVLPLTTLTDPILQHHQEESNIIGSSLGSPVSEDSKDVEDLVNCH
Source text: as §1, §2, §3
(§4) Mass analysis was performed using LCQ DECA XP (Thermoelectron) or Q-TOF micro (Micromass), equipped with an ESI probe. […]
(§5) In the 384-well spin column method, Unifilter 100 (Whatman), packed with 10 μL (dry volume) of Bio-Gel P6 (BIO-RAD) and swollen with milliQ water, was used as the SEC column. […] 2-μL of mass analysis samples were injected using an autosampler at 2-minute intervals; the mass spectral intensity of the compound was measured to retrieve the spectral intensity of the pharmaceutical compound contained in the SEC spin column filtrate (protein fraction eluted from SEC).

[4] = target: T3, FLJ41991-derived protein (Homo sapiens, UniProt P57764, E293G); test: SEC/MS interaction analysis, FLJ41991-derived protein (GSDMDC1); assay type: binding
T3 construct: His-tag (N); made in house; host or cells: Escherichia coli BL21star(DE3)pLysS (pDEST17)
T3 sequence (P57764 265-484 E293G): T1 sequence (P57764 265-484) with E29G
How it was run: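 Compound–protein mixtures separated by SEC (micro-LC column with 10 mM ammonium acetate mobile phase, or Bio-Gel P6 spin column) and analysed by ESI mass spectrometry. Interaction inferred from a protein-dependent shift in the compound's mass chromatogram, or from compound signal intensity in the eluted protein fraction.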

[5] = target: T4, FLJ22317-derived protein (Homo sapiens, UniProt Q9NWV8); test: SEC/MS interaction analysis, FLJ22317-derived protein (HSPC142 protein); assay type: binding; settings: TSKgel super SW2000 micro-LC column (1.0 mm ID×30 mm); presence vs absence of protein; data not shown
T4 construct: His-tag (N); made in house; host or cells: Escherichia coli BL21star(DE3)pLysS
Source text: The specific procedures are shown below.

[6] = target: T5, FLJ25288-derived protein (Homo sapiens, UniProt P09525, T85M); test: SEC/MS interaction analysis, FLJ25288-derived protein (Annexin A4); assay type: binding; settings: TSKgel super SW2000 micro-LC column (1.0 mm ID×30 mm); presence vs absence of protein; data not shown
T5 construct: His-tag (N); made in house; host or cells: Escherichia coli BL21star(DE3)pLysS
T5 sequence (P09525 1-321 isoform P09525-3 T87M): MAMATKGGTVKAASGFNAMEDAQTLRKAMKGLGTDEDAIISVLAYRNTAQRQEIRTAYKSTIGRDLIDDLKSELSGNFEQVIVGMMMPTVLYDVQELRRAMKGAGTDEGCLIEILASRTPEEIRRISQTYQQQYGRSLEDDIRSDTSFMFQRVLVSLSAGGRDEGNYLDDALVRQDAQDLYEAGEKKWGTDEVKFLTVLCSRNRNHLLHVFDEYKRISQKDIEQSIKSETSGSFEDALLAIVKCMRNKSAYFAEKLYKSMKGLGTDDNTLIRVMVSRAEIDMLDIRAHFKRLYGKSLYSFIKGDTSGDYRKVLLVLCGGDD
Source text: as §1, §2, §3, §4, §5

[7] = target: T6, FLJ10537-derived protein (Homo sapiens, UniProt Q9NR28); test: SEC/MS interaction analysis, FLJ10537-derived protein (DIABLO homolog; SMAC); assay type: binding; settings: TSKgel super SW2000 micro-LC column (1.0 mm ID×30 mm); presence vs absence of protein; data not shown
T6 construct: His-tag (N); made in house; host or cells: Escherichia coli BL21star(DE3)pLysS
T6 sequence (Q9NR28 1-186 isoform Q9NR28-2): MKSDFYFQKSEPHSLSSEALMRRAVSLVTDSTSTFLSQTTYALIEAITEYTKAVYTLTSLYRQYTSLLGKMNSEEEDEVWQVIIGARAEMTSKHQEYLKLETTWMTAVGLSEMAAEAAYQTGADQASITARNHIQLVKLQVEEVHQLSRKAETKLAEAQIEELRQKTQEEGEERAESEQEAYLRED
Source text: as §1, §2, §3, §4, §5

[8] = target: T7, FLJ39553-derived protein (Homo sapiens, UniProt Q6P6B1, N326S); test: SEC/MS interaction analysis, FLJ39553-derived protein (hypothetical protein FLJ39553); assay type: binding; settings: TSKgel super SW2000 micro-LC column (1.0 mm ID×30 mm); presence vs absence of protein; data not shown
T7 construct: His-tag (N); made in house; host or cells: Escherichia coli BL21star(DE3)pLysS
T7 sequence (Q6P6B1 1-374 N326S): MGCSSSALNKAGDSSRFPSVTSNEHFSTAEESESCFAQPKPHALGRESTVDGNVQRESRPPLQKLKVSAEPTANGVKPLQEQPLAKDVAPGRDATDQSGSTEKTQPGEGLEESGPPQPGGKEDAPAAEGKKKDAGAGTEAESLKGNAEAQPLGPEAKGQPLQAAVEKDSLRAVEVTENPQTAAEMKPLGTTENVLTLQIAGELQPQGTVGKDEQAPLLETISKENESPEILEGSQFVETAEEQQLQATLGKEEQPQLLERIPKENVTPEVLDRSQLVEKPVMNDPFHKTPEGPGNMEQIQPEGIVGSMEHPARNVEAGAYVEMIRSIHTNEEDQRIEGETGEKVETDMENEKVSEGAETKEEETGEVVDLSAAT
Source text: as §1, §2, §3, §4, §5

T4 sequence (Q9NWV8 whole entry): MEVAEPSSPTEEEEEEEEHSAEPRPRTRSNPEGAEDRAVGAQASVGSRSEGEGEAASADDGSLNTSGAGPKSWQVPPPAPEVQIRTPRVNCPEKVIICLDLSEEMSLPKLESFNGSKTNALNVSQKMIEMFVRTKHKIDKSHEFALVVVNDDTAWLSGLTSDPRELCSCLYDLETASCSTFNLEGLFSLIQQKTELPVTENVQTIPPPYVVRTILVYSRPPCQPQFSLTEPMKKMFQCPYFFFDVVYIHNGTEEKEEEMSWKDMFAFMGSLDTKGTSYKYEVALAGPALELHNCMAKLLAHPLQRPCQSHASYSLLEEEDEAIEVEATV

CC(C)(C)c1ccc(C(O)CCCN2CCC(C(O)(c3ccccc3)c3ccccc3)CC2)cc1 (stereo not drawn) [terfenadine]
FLJ No of the derived protein with which the compound was judged to exhibit a concentration-dependent interaction [1]: FLJ11211; also recorded: FLJ38897; also recorded: FLJ41991
interaction judged from mass spectrum peak intensity of the compound in the spin column filtrate [2]: an interaction was observed
interaction judged from mass spectrum peak intensity of the compound in the spin column filtrate [3]: there was an interaction
spectrum intensity of the compound in the SEC spin column filtrate ([4]; compound 12.5 μM, protein 0 μM): 26814
spectrum intensity of the compound in the SEC spin column filtrate ([4]; compound 12.5 μM, protein 5 μM): 200843
spectrum intensity of the compound in the SEC spin column filtrate ([4]; compound 12.5 μM, protein 10 μM): 376865
spectrum intensity of the compound in the SEC spin column filtrate ([4]; compound 12.5 μM, protein 25 μM): 1734729
spectrum intensity of the compound in the SEC spin column filtrate ([4]; compound 25 μM, protein 0 μM): 87636
spectrum intensity of the compound in the SEC spin column filtrate ([4]; compound 25 μM, protein 5 μM): 311313
spectrum intensity of the compound in the SEC spin column filtrate ([4]; compound 25 μM, protein 10 μM): 949465
spectrum intensity of the compound in the SEC spin column filtrate ([4]; compound 25 μM, protein 25 μM): 4190413
spectrum intensity of the compound in the SEC spin column filtrate ([4]; compound 62.5 μM, protein 0 μM): 231173
spectrum intensity of the compound in the SEC spin column filtrate ([4]; compound 62.5 μM, protein 5 μM): 1759965
spectrum intensity of the compound in the SEC spin column filtrate ([4]; compound 62.5 μM, protein 10 μM): 5619658
spectrum intensity of the compound in the SEC spin column filtrate ([4]; compound 62.5 μM, protein 25 μM): 9678283
interaction judged from spectrum intensity of the compound in the SEC spin column filtrate (protein fraction eluted from SEC) ([4]; spin column method, doses of both compound and protein varied): concentration-dependent interaction

solanine α
FLJ No of the derived protein with which the compound was judged to exhibit a concentration-dependent interaction [1]: FLJ22317; also recorded: FLJ39553
interaction judged from mass chromatogram of the compound (elution from SEC micro-LC column) [5]: there was an interaction

CN(Cc1cnc2nc(N)nc(N)c2n1)c1ccc(C(=O)N[C@@H](CCC(=O)O)C(=O)O)cc1 (racemic) [amethopterin (R, S), amethopterin]
FLJ No of the derived protein with which the compound was judged to exhibit a concentration-dependent interaction [1]: FLJ25288
interaction judged from mass chromatogram of the compound (elution from SEC micro-LC column) [6]: there was an interaction

COc1c2occc2cc2ccc(=O)oc12 [methoxsalen]
FLJ No of the derived protein with which the compound was judged to exhibit a concentration-dependent interaction [1]: FLJ10537
interaction judged from mass chromatogram of the compound (elution from SEC micro-LC column) [7]: there was an interaction

C[C@@H]1[C@H](O)[C@@H](C)/C=C/C=C/C=C/C=C/C=C/C=C/C=C/[C@H](O[C@@H]2O[C@H](C)[C@@H](O)[C@H](N)[C@@H]2O)C[C@@H]2O[C@](O)(C[C@@H](O)C[C@@H](O)[C@H](O)CC[C@@H](O)C[C@@H](O)CC(=O)O[C@H]1C)C[C@H](O)[C@H]2C(=O)O [amphotericin B]
FLJ No of the derived protein with which the compound was judged to exhibit a concentration-dependent interaction [1]: FLJ39553
interaction judged from mass chromatogram of the compound (elution from SEC micro-LC column) [8]: there was an interaction
